Like-named read-outs stand apart in the source and are kept apart here.
Experiments:
PYR1 [1] = target: T1, PYR1 (Arabidopsis thaliana, UniProt O49686); test: biochemical; parameters: Isothermal titration calorimetry of compound binding to PYR1; details: read-out: ITC/Kd/μM
T1 sequence (O49686 1-191): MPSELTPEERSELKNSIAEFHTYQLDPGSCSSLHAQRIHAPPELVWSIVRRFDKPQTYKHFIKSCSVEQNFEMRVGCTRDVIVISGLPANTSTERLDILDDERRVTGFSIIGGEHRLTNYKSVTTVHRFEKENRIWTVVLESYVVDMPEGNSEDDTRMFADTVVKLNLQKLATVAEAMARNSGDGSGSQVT
Experimental: (§1) To validate the practicality of GhitFluors platform for global high‐throughput identification of ABA receptor modulators, we used this platform to analyze a library comprising several hundreds‐amide compounds. First, we evaluated K d values of several hundreds amide‐compounds using fluorescence competition assays. […] Meanwhile, binding affinities of the six compounds to PYR1 were evaluated using ITC or BLI assays to validate the screening results. […] As depicted in Figure 4a, a significant decrease in fluorescence intensity was observed as the concentration of diopyridin increased, ranging from 30 to 350 µM. When the concentration of diopyridin reached 350 µM, fluorescence intensity was close to the threshold. […] In addition, we also tested the binding affinities of diopyridin with other representative PYLs, including dimer (PYL1, PYL2), and monomer (PYL4, PYL5, and PYL10‐PYL12) that had K d values ranging from 0.97 to 32.8 µM, and 1.6 to 243.7 µM, respectively (Figure S20, Supporting Information).

PYR1 [2] = target: T1, PYR1; test: biochemical; parameters: Fluorescence competition displacing lebactin (1 uM) from PYR1 (8 uM); Kd from double-log titration fit; details: 1 uM lebactin, 8 uM PYR1; read-out: F(GhitFluors)/Kd/μM
Excerpt: as §1, with “Validation of the Fluorescent Chemosensor‐Based Screening Platform In‐house Chemical Database Screening Assay To” for “To”

PYR1 [3] = target: T1, PYR1; test: biochemical; parameters: Bio-layer interferometry of compound binding to PYR1; details: read-out: BLI/Kd/μM
Experimental: To validate the practicality of GhitFluors platform for global high‐throughput identification of ABA receptor modulators, we used this platform to analyze a library comprising several hundreds‐amide compounds. First, we evaluated K d values of several hundreds amide‐compounds using fluorescence competition assays. […] Meanwhile, binding affinities of the six compounds to PYR1 were evaluated using ITC or BLI assays to validate the screening results. […] As depicted in Figure 4a, a significant decrease in fluorescence intensity was observed as the concentration of diopyridin increased, ranging from 30 to 350 µM. When the concentration of diopyridin reached 350 µM, fluorescence intensity was close to the threshold. […] It should have a low fluorescence background, high fluorescence shift and stability, and appropriate binding affinity, as these determine the accuracy, feasibility and, the sensitivity of this platform, respectively. […] First, we evaluated the fluorescence background of all chemosensors by using 310–370 nm as excitation wavelength. […] In addition, the binding affinity of compound 1a (lebactin) for PYR1 was evaluated by bio‐layer interferometry (BLI). […]

[4] = target: T2, PYR-HAB1 (PYR1 with HAB1) (Arabidopsis thaliana, UniProt O49686); test: Ser/Thr phosphatase assay (Promega), HAB1 inhibition via PYR1; assay type: biochemical
T2 construct: HAB1 construct not described in main text; with Protein phosphatase 2C 16
T2 sequence (O49686 1-191): T1 sequence (O49686 1-191)
T2 sequence (Q9CAJ0 1-511 partner): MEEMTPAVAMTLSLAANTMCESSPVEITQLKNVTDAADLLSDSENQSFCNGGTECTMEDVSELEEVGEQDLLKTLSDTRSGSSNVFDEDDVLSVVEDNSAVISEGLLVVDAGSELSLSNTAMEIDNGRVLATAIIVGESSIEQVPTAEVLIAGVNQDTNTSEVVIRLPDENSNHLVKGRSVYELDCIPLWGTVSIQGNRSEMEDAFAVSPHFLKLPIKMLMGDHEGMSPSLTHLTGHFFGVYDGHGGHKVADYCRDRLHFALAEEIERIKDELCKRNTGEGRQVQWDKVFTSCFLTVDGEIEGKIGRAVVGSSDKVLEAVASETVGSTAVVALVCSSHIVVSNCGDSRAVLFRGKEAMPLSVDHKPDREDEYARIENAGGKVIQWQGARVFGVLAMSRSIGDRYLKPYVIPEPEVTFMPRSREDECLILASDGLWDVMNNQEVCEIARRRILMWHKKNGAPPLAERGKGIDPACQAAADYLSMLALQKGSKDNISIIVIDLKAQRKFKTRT

| Kd (PYR1 [1]) [µM] | Kd (PYR1 [2]) [µM] | SMILES | Kd (PYR1 [3]) [µM] | inhibition at 50 µM [4] [%] | inhibition at 25 µM [4] [%] |
| --- | --- | --- | --- | --- | --- |
| 171 ± 3.76 | 37.8 ± 1.31 | CC(C)(C)c1ccc(S(=O)(=O)Nc2c([N+](=O)[O-])cc(Br)cc2[N+](=O)[O-])cc1 [145a, N-(4-bromo-2,6-dinitrophenyl)-4-(tert-butyl)benzenesulfonamide] |  |  |  |
|  |  | COc1ccc(C(=O)Nc2cccc3c2C(=O)N(C2CCC(=O)NC2=O)C3=O)cc1OC (centres unmarked) [173b, diopyridin] |  | > 80 |  |
| 7.59 ± 1.62 | 3.96 ± 0.4 | O=[N+]([O-])c1cc(Br)cc([N+](=O)[O-])c1NS(=O)(=O)c1cccc(F)c1 [260a, N-(4-bromo-2,6-dinitrophenyl)-3-fluorobenzenesulfonamide] |  |  |  |
| 7.06 ± 1.92 | 8.25 ± 0.25 | O=[N+]([O-])c1cc(Br)cc([N+](=O)[O-])c1NS(=O)(=O)c1cccc(Cl)c1 [361a, N-(4-bromo-2,6-dinitrophenyl)-3-chlorobenzenesulfonamide] |  |  |  |
| 14.9 ± 3.29 | 4.73 ± 0.37 | Cc1ccccc1S(=O)(=O)Nc1c([N+](=O)[O-])cc(Br)cc1[N+](=O)[O-] [368a, N-(4-bromo-2,6-dinitrophenyl)-2-methylbenzenesulfonamide] |  |  |  |
| 9.51 ± 2.19 | 8.43 ± 0.75 | O=[N+]([O-])c1cc(Br)cc([N+](=O)[O-])c1NS(=O)(=O)c1ccccc1Cl [470a, N-(4-bromo-2,6-dinitrophenyl)-2-chlorobenzenesulfonamide] |  |  |  |
|  |  | CC1=CC(=O)CC(C)(C)[C@@]1(O)/C=C/C(C)=C\C(=O)O [ABA] |  |  | > 80 |

| SMILES | Kd (PYR1 [1]) [µM] | Kd (PYR1 [2]) [µM] | Kd (PYR1 [3]) [µM] | inhibition at 50 µM [4] [%] | inhibition at 25 µM [4] [%] |
| --- | --- | --- | --- | --- | --- |
| COc1ccc(C(=O)Nc2cccc3c2C(=O)N(C2CCC(=O)NC2=O)C3=O)cc1OC (centres unmarked) [173b, N-(2(2,6-dioxopiperidin-3-yl)-1,3-dioxoisoindolin-4-yl)-3,4-dimethoxybenzamide] |  | 1.55 ± 0.11 | 9.5 ± 0.75 |  |  |
